Source: PubChem BioAssay (NCI)
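Method: 48-hour compound exposure of cells in 96-well plates, five concentrations, linear interpolation of endpoints. TGI: concentration producing complete growth inhibition.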

Tests used:
Assay in all cases: DTP human tumour cell line panel, 48 h
[1] = tested on: 786-0 renal
[2] = tested on: A498 renal
[3] = tested on: A549 NSCLC
[4] = tested on: ACHN renal
[5] = tested on: CAKI-1 renal
[6] = tested on: CCRF-CEM leukemia
[7] = tested on: COLO 205 colon
[8] = tested on: DLD-1 colon
[9] = tested on: DMS 114 small cell lung
[10] = tested on: EKVX NSCLC
[11] = tested on: HCC-2998 colon
[12] = tested on: HL-60(TB) leukemia
[13] = tested on: HOP-62 NSCLC
[14] = tested on: HOP-92 NSCLC
[15] = tested on: HT29 colon
[16] = tested on: IGROV1 ovarian
[17] = tested on: K-562 leukemia
[18] = tested on: KM12 colon
[19] = tested on: KM20L2 colon
[20] = tested on: LOX IMVI melanoma
[21] = tested on: LXFL 529 NSCLC
[22] = tested on: M14 melanoma
[23] = tested on: M19-MEL melanoma
[24] = tested on: MALME-3M melanoma
[25] = tested on: MOLT-4 leukemia
[26] = tested on: NCI-H226 lung
[27] = tested on: NCI-H23 lung
[28] = tested on: NCI-H460 lung
[29] = tested on: NCI-H522 lung
[30] = tested on: OVCAR-3 ovarian
[31] = tested on: OVCAR-4 ovarian
[32] = tested on: OVCAR-5 ovarian
[33] = tested on: OVCAR-8 ovarian
[34] = tested on: RPMI-8226 leukemia
[35] = tested on: RXF 393 renal
[36] = tested on: SF-268 CNS
[37] = tested on: SF-295 CNS
[38] = tested on: SF-539 CNS
[39] = tested on: SK-MEL-2 melanoma
[40] = tested on: SK-MEL-28 melanoma
[41] = tested on: SK-MEL-5 melanoma
[42] = tested on: SK-OV-3 ovarian
[43] = tested on: SN12C renal
[44] = tested on: SNB-19 CNS
[45] = tested on: SNB-75 CNS
[46] = tested on: SNB-78 CNS
[47] = tested on: SW-620 colon
[48] = tested on: TK-10 renal
[49] = tested on: U251 CNS
[50] = tested on: UACC-257 melanoma
[51] = tested on: UO-31 renal
[52] = tested on: BT-549 breast
[53] = tested on: DU-145 prostate
[54] = tested on: HCT-116 colon
[55] = tested on: HCT-15 colon
[56] = tested on: HS 578T breast
[57] = tested on: MCF7 breast
[58] = tested on: MDA-MB-231 breast
[59] = tested on: MDA-MB-435
[60] = tested on: MDA-N
[61] = tested on: NCI/ADR-RES ovarian
[62] = tested on: PC-3 prostate
[63] = tested on: SR leukemia
[64] = tested on: T-47D breast
[65] = tested on: UACC-62 melanoma

SMILES: CC1=C(C(=O)Nc2cccc(Cl)c2)C(c2ccccc2O)C(C(=O)Nc2cccc(Cl)c2)=C(C)N1
- TGI [1]: 29.2 µM
- TGI [2]: 38 µM
- TGI [3]: 43.8 µM
- TGI [4]: 53.8 µM
- TGI [5]: 43.3 µM
- TGI [6]: 50.2 µM
- TGI [7]: 43.2 µM
- TGI [8]: 33 µM
- TGI [9]: 54.6 µM
- TGI [10]: 47.6 µM
- TGI [11]: 33.1 µM
- TGI [12]: 48.1 µM
- TGI [13]: 39.8 µM
- TGI [14]: 37 µM
- TGI [15]: 35.7 µM
- TGI [16]: 70.7 µM
- TGI [17]: 53.7 µM
- TGI [18]: 31.2 µM
- TGI [19]: 37.7 µM
- TGI [20]: 39.7 µM
- TGI [21]: 39.3 µM
- TGI [22]: 31.7 µM
- TGI [23]: 40.6 µM
- TGI [24]: 38.6 µM
- TGI [25]: 59.2 µM
- TGI [26]: 33.1 µM
- TGI [27]: 33.1 µM
- TGI [28]: 46.4 µM
- TGI [29]: 34.1 µM
- TGI [30]: 40 µM
- TGI [31]: 35.6 µM
- TGI [32]: 38.6 µM
- TGI [33]: 60.1 µM
- TGI [34]: 46 µM
- TGI [35]: 31.9 µM
- TGI [36]: 37.9 µM
- TGI [37]: 40.6 µM
- TGI [38]: 34.3 µM
- TGI [39]: 32.2 µM
- TGI [40]: 31.9 µM
- TGI [41]: 31.5 µM
- TGI [42]: 54.4 µM
- TGI [43]: 39 µM
- TGI [44]: 52.1 µM
- TGI [45]: 43 µM
- TGI [46]: 57.2 µM
- TGI [47]: 35.8 µM
- TGI [48]: 39.5 µM
- TGI [49]: 41.4 µM
- TGI [50]: 36.6 µM
- TGI [51]: 31.3 µM

SMILES: c1ccc(-c2cnc(SC(c3ccccc3)c3ccccc3)[nH]2)cc1
- TGI [1]: > 100 µM
- TGI [2]: > 100 µM
- TGI [3]: > 100 µM
- TGI [4]: > 100 µM
- TGI [52]: > 100 µM
- TGI [5]: > 100 µM
- TGI [6]: > 100 µM
- TGI [7]: 44.1 µM
- TGI [53]: > 100 µM
- TGI [10]: 60 µM
- TGI [11]: 35.8 µM
- TGI [54]: > 100 µM
- TGI [55]: 38.8 µM
- TGI [12]: 40.7 µM
- TGI [13]: > 100 µM
- TGI [14]: 54 µM
- TGI [56]: > 100 µM
- TGI [15]: > 100 µM
- TGI [16]: > 100 µM
- TGI [17]: > 100 µM
- TGI [18]: > 100 µM
- TGI [20]: 59 µM
- TGI [22]: > 100 µM
- TGI [24]: 73.9 µM
- TGI [57]: 74.7 µM
- TGI [58]: > 100 µM
- TGI [59]: > 100 µM
- TGI [60]: 69.6 µM
- TGI [25]: > 100 µM
- TGI [26]: 67.3 µM
- TGI [27]: 52.5 µM
- TGI [28]: 46.8 µM
- TGI [29]: 54.6 µM
- TGI [61]: 85.4 µM
- TGI [30]: > 100 µM
- TGI [31]: > 100 µM
- TGI [32]: > 100 µM
- TGI [33]: > 100 µM
- TGI [62]: 84.7 µM
- TGI [34]: 48.5 µM
- TGI [35]: 78.5 µM
- TGI [36]: > 100 µM
- TGI [37]: > 100 µM
- TGI [38]: > 100 µM
- TGI [39]: 53.2 µM
- TGI [40]: > 100 µM
- TGI [41]: 27 µM
- TGI [42]: > 100 µM
- TGI [43]: 65.4 µM
- TGI [44]: > 100 µM
- TGI [45]: > 100 µM
- TGI [63]: 64.3 µM
- TGI [47]: > 100 µM
- TGI [64]: 54.7 µM
- TGI [48]: > 100 µM
- TGI [49]: > 100 µM
- TGI [50]: 55.5 µM
- TGI [65]: 42.1 µM
- TGI [51]: > 100 µM
